One test has as its target T1, recombinant human DPP8 (Homo sapiens, UniProt Q6V1X1).
T1 construct: purchased PBS Bioscience
The test is described as follows: DPP8 inhibition, fluorogenic substrate Z-Ala-Pro-AMC. The format is biochemical. Conditions: recombinant human DPP8. An outline of the steps:
(§1)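 Inhibitors are titrated in an 8-point series into the enzyme's assay buffer (DMSO no more than 0.5%). Substrate cleavage at 25 °C is followed by fluorescence, excitation 380 nm and emission 460 nm. IC50 values come from a four-variable logistic model.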

The next test deals with T2, recombinant human PREP (Homo sapiens, UniProt P48147).
T2 construct: purchased R&D System
T2 sequence (P48147 1-710): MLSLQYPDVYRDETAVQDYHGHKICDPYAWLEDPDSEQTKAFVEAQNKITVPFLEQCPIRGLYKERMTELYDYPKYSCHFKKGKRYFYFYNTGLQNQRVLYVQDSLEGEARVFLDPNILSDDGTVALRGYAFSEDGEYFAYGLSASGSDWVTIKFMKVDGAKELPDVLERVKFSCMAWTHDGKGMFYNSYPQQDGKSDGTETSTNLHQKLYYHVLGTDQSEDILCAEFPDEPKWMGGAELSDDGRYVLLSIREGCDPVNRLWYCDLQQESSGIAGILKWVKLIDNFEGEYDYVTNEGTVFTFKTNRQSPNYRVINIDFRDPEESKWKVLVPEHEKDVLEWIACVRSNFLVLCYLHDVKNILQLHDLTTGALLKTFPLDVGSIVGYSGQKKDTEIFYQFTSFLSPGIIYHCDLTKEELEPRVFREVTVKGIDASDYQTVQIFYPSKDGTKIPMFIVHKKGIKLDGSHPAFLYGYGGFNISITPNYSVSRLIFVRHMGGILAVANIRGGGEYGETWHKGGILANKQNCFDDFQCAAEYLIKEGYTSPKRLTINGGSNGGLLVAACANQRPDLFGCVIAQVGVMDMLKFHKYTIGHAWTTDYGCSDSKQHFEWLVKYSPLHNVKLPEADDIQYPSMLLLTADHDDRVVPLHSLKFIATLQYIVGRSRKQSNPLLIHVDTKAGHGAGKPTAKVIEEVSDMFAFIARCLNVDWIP
In words: PREP inhibition, fluorogenic substrate Z-Gly-Pro-AMC. The format is biochemical. Particulars: Inhibitory Activity (IC50, nM) PREP, recombinant human PREP. An outline of the steps:
as §1

The results in this text go back to patent publication US11655235B2, “Pyrrolidine and piperidine compounds” (YUHAN CORPORATION, priority 2019, dated 2023).

Where “and” joins values, the source holds several entries; their conditions need not be identical. Equal values may be shown once.

T1 sequence (Q6V1X1 whole entry): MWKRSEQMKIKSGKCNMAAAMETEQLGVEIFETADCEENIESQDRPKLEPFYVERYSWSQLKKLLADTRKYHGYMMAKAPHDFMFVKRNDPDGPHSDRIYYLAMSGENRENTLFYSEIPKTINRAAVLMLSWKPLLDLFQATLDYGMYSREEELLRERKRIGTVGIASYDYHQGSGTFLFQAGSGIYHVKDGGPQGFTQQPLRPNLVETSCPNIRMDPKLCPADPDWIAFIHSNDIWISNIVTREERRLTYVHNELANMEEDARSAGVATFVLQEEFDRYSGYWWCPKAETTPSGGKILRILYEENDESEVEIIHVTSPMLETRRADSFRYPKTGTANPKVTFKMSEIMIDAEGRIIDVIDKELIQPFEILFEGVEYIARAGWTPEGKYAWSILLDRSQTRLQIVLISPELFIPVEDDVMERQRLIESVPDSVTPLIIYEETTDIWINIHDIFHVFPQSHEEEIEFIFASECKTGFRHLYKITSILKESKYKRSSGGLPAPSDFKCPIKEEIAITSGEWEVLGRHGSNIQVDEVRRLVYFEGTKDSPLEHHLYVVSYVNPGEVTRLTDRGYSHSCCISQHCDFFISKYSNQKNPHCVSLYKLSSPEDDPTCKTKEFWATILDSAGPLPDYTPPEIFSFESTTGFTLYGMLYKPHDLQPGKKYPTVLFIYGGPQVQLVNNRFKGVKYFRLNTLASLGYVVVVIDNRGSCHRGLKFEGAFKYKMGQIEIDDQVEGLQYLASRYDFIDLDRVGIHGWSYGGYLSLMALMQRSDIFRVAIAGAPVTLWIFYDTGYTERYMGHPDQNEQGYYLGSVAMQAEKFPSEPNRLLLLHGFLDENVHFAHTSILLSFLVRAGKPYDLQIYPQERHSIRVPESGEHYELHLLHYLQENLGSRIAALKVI

One may read the IC50 as the concentration needed to halve the response being measured. As for `N#C[C@@H]1C[C@H](F)CN1C(=O)CN1CC[C@H](Nc2cccc3ncccc23)C1` [Example 228, (2S,4S)-4-fluoro-1-[2-[(3S)-3-(5-quinolylamino)pyrrolidin-1-yl]acetyl]pyrrolidine-2-carbonitrile], the IC50 worked out at 10.8 µM on recombinant human DPP8 and 4290 nM at recombinant human PREP.
The like results for `N#Cc1cnc2cccc(N[C@H]3CCN(CC(=O)N4CCC[C@H]4C#N)C3)c2c1` [Example 232, 5-[[(3S)-1-[2-oxo-2-[(2S)-2-cyanopyrrolidin-1-yl]ethyl]pyrrolidin-3-yl]amino]quinoline-3-carbonitrile] were, in that order, more than 100 µM and 13700 nM.
With `COc1cnc2cccc(N[C@H]3CCN(CC(=O)N4CCC[C@H]4C#N)C3)c2c1` [Example 233, (2S)-1-[2-[(3S)-3-[(3-methoxy-5-quinolyl)amino]pyrrolidin-1-yl]acetyl]pyrrolidine-2-carbonitrile], the IC50 is 28.1 µM at recombinant human DPP8 and 11500 nM at recombinant human PREP.
Take `N#C[C@@H]1CCCN1C(=O)CN1CC[C@H](Nc2ccc(F)c3ncccc23)C1` [Example 244, (2S)-1-[2-[(3S)-3-[(8-fluoro-5-quinolyl)amino]pyrrolidin-1-yl]acetyl]pyrrolidine-2-carbonitrile]: the values for the IC50 at recombinant human DPP8 and on recombinant human PREP were 32.7 µM and 11100 nM, respectively.
The like results for `N#C[C@@H]1CCCN1C(=O)CN1CC[C@H](Nc2ccc(C(F)(F)F)c3ncccc23)C1` [Example 245, (2S)-1-[2-[(3S)-3-[[8-(trifluoromethyl)-5-quinolyl]amino]pyrrolidin-1-yl]acetyl]pyrrolidine-2-carbonitrile] were, in that order, more than 100 µM and 9470 nM.
Consider `N#Cc1ccc(N[C@H]2CCN(CC(=O)N3CCC[C@H]3C#N)C2)c2cccnc12` [Example 247, 5-[[(3S)-1-[2-oxo-2-[(2S)-2-cyanopyrrolidin-1-yl]ethyl]pyrrolidin-3-yl]amino]quinoline-8-carbonitrile], for which the IC50 was more than 100 µM on recombinant human DPP8 and more than 10000 nM at recombinant human PREP.
On to `N#C[C@@H]1C[C@H](F)CN1C(=O)CN1CC[C@H](Nc2cccc3ncc(F)cc23)C1` [Example 255, (2S,4S)-4-fluoro-1-[2-[(3S)-3-[(3-fluoro-5-quinolyl)amino]pyrrolidin-1-yl]acetyl]pyrrolidine-2-carbonitrile], for which the IC50 was 5.1 µM at recombinant human DPP8 and 2210 nM on recombinant human PREP.
Turning to `COc1ccc(N[C@H]2CCN(CC(=O)N3C[C@@H](F)C[C@H]3C#N)C2)c2cccnc12` [Example 263, (2S,4S)-4-fluoro-1-[2-[(3S)-3-[(8-methoxy-5-quinolyl)amino]pyrrolidin-1-yl]acetyl]pyrrolidine-2-carbonitrile], the results for the IC50 at recombinant human DPP8 and at recombinant human PREP were 3.57 µM and 3470 nM, respectively.
With `N#C[C@@H]1C[C@H](F)CN1C(=O)CN1CC[C@H](Nc2ccc(OC(F)(F)F)c3ncccc23)C1` [Example 266, (2S,4S)-4-fluoro-1-[2-[(3S)-3-[[8-(trifluoromethoxy)-5-quinolyl]amino]pyrrolidin-1-yl]acetyl]pyrrolidine-2-carbonitrile], the IC50 was more than 10 µM on recombinant human DPP8 and 3170 nM on recombinant human PREP.
The like results for `N#C[C@@H]1C[C@H](F)CN1C(=O)CN1CC[C@H](Nc2ccc(OCc3ccccc3)c3ncccc23)C1` [Example 268, (2S,4S)-4-fluoro-1-[2-[(3S)-3-[(8-benzyloxy-5-quinolyl)amino]pyrrolidin-1-yl]acetyl]pyrrolidine-2-carbonitrile] were, in that order, 1.11 µM and 3520 nM.
Take `N#C[C@@H]1C[C@H](F)CN1C(=O)CN1CCC(Nc2ccc(C(F)(F)F)c3ncccc23)CC1` [Example 334, (2S,4S)-4-fluoro-1-[2-[4-[[8-(trifluoromethyl)-5-quinolyl]amino]-1-piperidyl]acetyl]pyrrolidine-2-carbonitrile]: the IC50 at recombinant human PREP was 2300 nM and 2780 nM.
Regarding `N#C[C@@H]1C[C@H](F)CN1C(=O)CN1CCC(Nc2ccc(OC(F)(F)F)c3ncccc23)CC1` [Example 347, (2S,4S)-4-fluoro-1-[2-[4-[[8-(trifluoromethoxy)-5-quinolyl]amino]-1-piperidyl]acetyl]pyrrolidine-2-carbonitrile], the IC50 at recombinant human DPP8 came out at 2.62 µM; at recombinant human PREP, 4580 nM.
The like results for `COc1cnc2cccc(NC3CCN(CC(=O)N4C[C@@H](F)C[C@H]4C#N)CC3)c2c1` [Example 348, (2S,4S)-4-fluoro-1-[2-[4-[(3-methoxy-5-quinolyl)amino]-1-piperidyl]acetyl]pyrrolidine-2-carbonitrile] were, in that order, 2.44 µM and 10000 nM.
The matching figures for `N#C[C@@H]1C[C@H](F)CN1C(=O)CN1CCC(Nc2cccc3ncc(F)cc23)CC1` [Example 349, (2S,4S)-4-fluoro-1-[2-[4-[(3-fluoro-5-quinolyl)amino]-1-piperidyl]acetyl]pyrrolidine-2-carbonitrile]: 2.9 µM and 5200 nM.
The like results for `N#C[C@@H]1C[C@H](F)CN1C(=O)CN1CCC(Nc2cccc3cnc(Cl)cc23)CC1` [Example 352, (2S,4S)-1-[2-[4-[(3-chloro-5-isoquinolyl)amino]-1-piperidyl]acetyl]-4-fluoro-pyrrolidine-2-carbonitrile] were, in that order, more than 10 µM and 10700 nM.
Regarding `COc1cc2c(NC3CCN(CC(=O)N4C[C@@H](F)C[C@H]4C#N)CC3)cccc2cn1` [Example 355, (2S,4S)-4-fluoro-1-[2-[4-[(3-methoxy-5-isoquinolyl)amino]-1-piperidyl]acetyl]pyrrolidine-2-carbonitrile], the IC50 at recombinant human DPP8 is more than 100 µM; on recombinant human PREP it was 14200 nM.
The matching figures for `Cc1ccc2nccc(OC3CCN(CC(=O)N4C[C@@H](F)C[C@H]4C#N)CC3)c2c1` [Example 410, (2S,4S)-4-fluoro-1-[2-[4-[(6-methyl-4-quinolyl)oxy]-1-piperidyl]acetyl]pyrrolidine-2-carbonitrile]: 10.7 µM and 3170 nM.
